# Legend:
# APOE*3Leiden mice [1] = assay: Hepatic mRNA expression levels by RT-PCR (normalized to HPRT); assay type: in vivo; parameters: key to acc1 mRNA, Change / mttp mRNA, Change / dgat1 mRNA, Change / dgat2 mRNA, Change / aco mRNA, Change / ldlr mRNA, Change / apob mRNA, Change / srebp2 mRNA, Change / pparα mRNA, Change / pparγ mRNA, Change / lxrα mRNA, Change / lxrβ mRNA, Change / fxr mRNA, Change / hmgcoAred mRNA, Change / cyp7α mRNA, Change / abca1 mRNA, Change / srebp1c mRNA, Change / fas mRNA, Change: ↑, (upregulated); ↓, (downregulated); n.s., not significant
# Procedure: (§1) Plasma parameters: Tail blood samples were collected in EDTA-coated cups, or in paraoxon-coated capillaries to prevent lipolysis as described in Zambon et al. 1993 (Zambon et al. 1993. J. Lipid Res. 34:1021-1028). Plasma lipid parameters were determined using commercial kits for total cholesterol (C) Chol R1 from Roche Diagnostics, Mannheim, Germany), non-esterified free fatty acids (FFA) (NEFA-C; Wako chemicals, Neuss, Germany), Total triglycerides (TG) (Triglyceride GPO-Trinder; Sigma, St. Louis, Mo.), β-hydroxybutyrate (β-HB; Sigma) and ALAT (Reflotron GPT; Roche). Serum amyloid A (SAA) was measured by ELISA (Biosource, Nivelles, Belgium) and fibrinogen by sandwich ELISA, as described in Koopman et al., 2005 (Koopman et al. 2005. Fibrinol Proteol 11:19). For lipoproteins fractionation, groupwise-pooled plasma was size-fractionated by fast protein liquid chromatography (FPLC) on a Superose 6 column (Äkta; Amersham Pharmacia Biotech, Uppsala, Sweden). Fractions were assayed for total C and TG as described. Hepatic VLDL-TG production: The rate of hepatic VLDL-TG production, de novo apoB secretion, and VLDL composition were determined in overnight-fasted mice. Mice were anaesthetized with vetranquil/fentanyl/midazolam i.p., and injected i.v. with 0.1 ml PBS containing 100 μCi Tran^35S-label™ (ICN Biomedicals, Irvine, Calif.) to measure the de novo apoB synthesis. After 30 min, the animals received a Triton WR1339 injection (Tyloxapol, Sigma; 500 mg/kg body weight in 100 μl saline) to prevent systemic lipolysis of newly-secreted hepatic VLDL-TG (Aalto-Setala et al. 1992. J. Clin. Invest 90:1889-1900.27) Blood samples were drawn at 0, 15, 30, 60, and 90 min after Triton WR1339 injection and plasma TG concentrations were determined. After 90 min, the animals were sacrificed and blood was collected by retro-orbital bleeding for isolation of VLDL. VLDL composition: VLDL particles (d<1.019) were separated from other lipoproteins in plasma by density gradient ultra-centrifugation, as described in Jong et al., 1996 (Jong et al. 1996. Arterioscler. Thromb. Vasc. Biol. 16:934-940). Protein content of the VLDL fraction was determined by Lowry's assay (Lowry et al., 1951. J. Biol. Chem. 193:265-275), and TG and total C were determined as described above. Phospholipids and free cholesterol were determined using standard commercial kits (Wako Chemicals, Neuss, Germany). The ^35S-apoB content of VLDL was measured after selective precipitation of apoB with isopropanol as described elsewhere (Li et al. 1996 J. Lipid Res. 37:210-220; Pietzsch et al. 1995. Biochim. Biophys. Acta 1254:77-88). In vivo clearance of VLDL-like TG-rich particles: To determine whether 1% PS accelerates the clearance of TG-rich lipoproteins from plasma, we used radiolabeled emulsion particles as a tool. VLDL-like emulsion particles containing 200 μCi of [^3H]triolein and 20 μCi of [^14C]cholesteryl oleate were prepared and characterized as described in Rensen et al. 1997 (Rensen et al., 1997. J. Lipid Res. 38:1070-1084). Fed mice were anaesthetized as described above and laparotomy was performed. […] After taking the last liver and blood sample, the remainder of the liver, heart, spleen, hind limb muscle, and gonadal, perirenal and intestinal white adipose tissues were harvested. Lipids were extracted overnight at 60° C. in 500 μL of Solvable™, and radioactivity was counted as described in Rensen et al., 1997 (supra). RNA isolation and RT-PCR: Livers from 4 h-fasted mice fed 1% PS-containing diet or control Western-type diet for 5 weeks were removed immediately after sacrifice, flushed with cold 0.9% NaCl and snap frozen in liquid nitrogen. Total RNA was isolated as described by Chomczynski and Sacchi (Chomczynski, P. and Sacchi, N. 1987. Anal. Biochem. 162:156-159) by use of RNA-Bee™ (Campro Scientific, Berlin, Germany). cDNA synthesis was performed according to Bloks et al (Bloks et al., 2001. J. Lipid Res. 42:41-50). […]
# APOE*3Leiden mice [2] = assay: Hepatic VLDL-TG production, apoB production and VLDL composition (Triton WR1339 method); assay type: in vivo; details: 1% PS diet
# Procedure: as §1
# [3] = 1% PS diet, 5 weeks, control = 100%
smiles,measurement,setting,value
"CCCCCCCCCCCCCC[C@@H](O)[C@@H](O)[C@@H](N)CO [PS, phytosphingosine]","abca1 mRNA, Change",APOE*3Leiden mice [1]; 1% PS diet vs control,n.s.
same,"acc1 mRNA, Change",APOE*3Leiden mice [1]; 1% PS diet vs control,n.s.
same,"aco mRNA, Change",APOE*3Leiden mice [1]; 1% PS diet vs control,n.s.
same,"apob mRNA, Change",APOE*3Leiden mice [1]; 1% PS diet vs control,n.s.
same,"cyp7α mRNA, Change",APOE*3Leiden mice [1]; 1% PS diet vs control,↓
same,"dgat1 mRNA, Change",APOE*3Leiden mice [1]; 1% PS diet vs control,n.s.
same,"dgat2 mRNA, Change",APOE*3Leiden mice [1]; 1% PS diet vs control,↑
same,"fas mRNA, Change",APOE*3Leiden mice [1]; 1% PS diet vs control,↑
same,"fxr mRNA, Change",APOE*3Leiden mice [1]; 1% PS diet vs control,↑
same,"hmgcoAred mRNA, Change",APOE*3Leiden mice [1]; 1% PS diet vs control,↑
same,"ldlr mRNA, Change",APOE*3Leiden mice [1]; 1% PS diet vs control,↑
same,"lxrα mRNA, Change",APOE*3Leiden mice [1]; 1% PS diet vs control,↑
same,"lxrβ mRNA, Change",APOE*3Leiden mice [1]; 1% PS diet vs control,↓
same,"mttp mRNA, Change",APOE*3Leiden mice [1]; 1% PS diet vs control,↑
same,"pparα mRNA, Change",APOE*3Leiden mice [1]; 1% PS diet vs control,n.s.
same,"pparγ mRNA, Change",APOE*3Leiden mice [1]; 1% PS diet vs control,n.s.
same,"srebp1c mRNA, Change",APOE*3Leiden mice [1]; 1% PS diet vs control,↑
same,"srebp2 mRNA, Change",APOE*3Leiden mice [1]; 1% PS diet vs control,↑
same,abca1 hepatic mRNA level,APOE*3Leiden mice [1]; [3],79 ± 6%
same,acc1 hepatic mRNA level,APOE*3Leiden mice [1]; [3],138 ± 29%
same,aco hepatic mRNA level,APOE*3Leiden mice [1]; [3],56 ± 9%
same,apob hepatic mRNA level,APOE*3Leiden mice [1]; [3],105 ± 25%
same,cyp7α hepatic mRNA level,APOE*3Leiden mice [1]; [3],7 ± 2%
same,dgat1 hepatic mRNA level,APOE*3Leiden mice [1]; [3],112 ± 27%
same,dgat2 hepatic mRNA level,APOE*3Leiden mice [1]; [3],185 ± 23%
same,fas hepatic mRNA level,APOE*3Leiden mice [1]; [3],237 ± 33%
same,fxr hepatic mRNA level,APOE*3Leiden mice [1]; [3],164 ± 58%
same,hmgcoAred hepatic mRNA level,APOE*3Leiden mice [1]; [3],444 ± 71%
same,ldlr hepatic mRNA level,APOE*3Leiden mice [1]; [3],209 ± 14%
same,lxrα hepatic mRNA level,APOE*3Leiden mice [1]; [3],162 ± 13%
same,lxrβ hepatic mRNA level,APOE*3Leiden mice [1]; [3],16 ± 8%
same,mttp hepatic mRNA level,APOE*3Leiden mice [1]; [3],167 ± 5%
same,pparα hepatic mRNA level,APOE*3Leiden mice [1]; [3],125 ± 10%
same,pparγ hepatic mRNA level,APOE*3Leiden mice [1]; [3],119 ± 10%
same,srebp1c hepatic mRNA level,APOE*3Leiden mice [1]; [3],194 ± 3%
same,srebp2 hepatic mRNA level,APOE*3Leiden mice [1]; [3],317 ± 33%
same,VLDL particle composition: phospholipid,APOE*3Leiden mice [2]; 5 weeks,7.57 ± 1.13 μmol/mg VLDL protein
same,VLDL particle composition: total cholesterol,APOE*3Leiden mice [2]; 5 weeks,11.94 ± 2.16 μmol/mg VLDL protein
same,VLDL particle composition: triglycerides,APOE*3Leiden mice [2]; 5 weeks,36.93 ± 7.17 μmol/mg VLDL protein
same,"VLDL total cholesterol, % Δ vs control",APOE*3Leiden mice [2]; 5 weeks,−51%
same,"apoB production rate, % Δ vs control",APOE*3Leiden mice [2]; 5 weeks,did not differ and n.s.
same,VLDL-TG production rate,"APOE*3Leiden mice [2]; 5 weeks, overnight-fasted",3.63 ± 0.52 μmol TG/h
same,apoB production rate,"APOE*3Leiden mice [2]; 5 weeks, overnight-fasted",13.47 ± 2.45 ×10^4 dpm/ml/h
same,Decrease of total C in VLDL particles vs control,APOE*3Leiden mice [2]; p<0.05,51%

# Reference: patent US7906488B2, “Sphingolipids in treatment and prevention of steatosis and of steatosis or of hepatotoxicity and its sequelae” (Nederlandse Organisatie Voor …, priority 2004, dated 2011)
